In US20120178158A1, “ADULT ANIMALS GENERATED FROM INDUCED PLURIPOTENT CELLS” (The Scripps Research Institute, priority 2009, published 2012):

Key:
Gtl2/Dlk1 (Gtl2 locus) = test: Methylation / activity of the Gtl2 locus in iPS cell lines derived with or without VPA; assay type: cell-based, mouse; conditions: VPA+ (n = 15 cell lines)
From the text: In some embodiments, the induction conditions include contacting the cells with a histone deacetylase inhibitor or other compound that alters epigenetic marks. […] See, Stadfeld, et al., Nature. 465(7295):175-81 (2010); Liu et al., J Biol Chem. 285(25):19483-90 (2010). Normal ESCs express genes from one of the two parental chromosomes. Previous non-fully pluripotent IPSC lines have reduced expression from both parental Gtl loci by allowing extra epigenetic marking. These iPSC lines have methylated both Gtl2 loci and also may have distinct histone acetylation and methylation that turns off gene expression which correlates with or causes failure to generate live animals. The methods described herein produce a high frequency of cell lines that generate mice and these lines have an active and properly imprinted (i.e., hemi-methylated and histone acetylated) Gtl2 locus. When the epigenetic remodeling compound, VPA is removed from the method but no other variables are changed, the Gtl2 locus is no longer active or properly imprinted in the majority of cell lines. Therefore inclusion of VPA, or other histone deacetylase inhibitors or epigenetic remodeling compounds, regulates imprinting of the Gtl2 locus and other genomic regions that control pluripotency.

[1] = test system: mouse embryonic fibroblasts (MEFs); test: Dox-inducible lentiviral reprogramming of fibroblasts to iPSC colonies; assay type: cell-based
From the text: We reasoned that inappropriate expression of reprogramming genes during development could inhibit embryonic and postnatal development. Therefore, we designed a drug-inducible lentiviral reprogramming strategy to achieve tight control of transgene expression in iPSCs and their derivatives (FIG. 1b)^19. The four original reprogramming factors (Oct4, Sox2, Klf4 and cMyc) were placed under control of the tetO promoter, which is activated by the reverse tetracycline transactivator (rtTA) protein in the presence of the tetracycline analog doxycycline (dox). We used an enhanced version of the rtTA transcriptional activator protein (rtTAM2.2) that induces higher gene expression levels than the rtTAM2 protein^20. To promote complete reprogramming and facilitate isolation of fully reprogrammed iPSCs we exposed MEFs to the histone deacetylase inhibitor valproic acid (VPA), which has been reported to enhance reprogramming efficiency^21 and to select against incompletely reprogrammed cells by inhibiting cell division^22 (Supplementary methods).
Generation of iPSCs. Mouse embryonic fibroblasts (MEFs) were prepared from Pcdh21/Cre-Z/EG (iMZ lines) or Nex/Cre-Z/EG (iNZ lines) E13.5 embryos. Generation of iMZ lines: After 24 hours in culture, individual wells of ˜300,000 MEFs were transduced with lentiviruses (day 1) and split 1:2 (day 2) and 1:3 (day 3) to generate 6 wells of transduced MEFs. On post-transduction day 4, dox (10 μg/ml) was added to four wells to induce expression of reprogramming genes; three of these wells were also treated with VPA (1.9 mM). The remaining two wells were treated with nothing, or VPA alone. To maintain conditions for optimal MEF growth and viability, on post-transduction day five, the three dox+VPA wells were expanded into a 15 cm^2 dish while the other three conditions were expanded to 10 cm^2 dishes. […] On day 14, additional colonies were isolated, of which 12 were expanded (lines iMZ-9-21) and characterized further. […] On post-transduction day 17, all putative iPSC lines were transferred to fresh feeders in single 96 well plates. Cell lines were expanded into two wells on post-transduction day 21. Cells were maintained in dox+VPA until post-transduction day 23, when both were removed. All cell lines appeared to maintain ESC like morphology and proliferation rates. Lines were expanded to 24 well plates on day 24. Subsequently, cell lines were banked and maintained as described in the cell culture conditions section. Generation of iNZ lines: Initial reprogramming conditions were identical to those of iMZ lines except that cells were split 1:2 on post-transduction day 3 to generate four wells (dox+VPA, dox only, VPA only and no treatment). Cells were split once after dox and VPA addition. […]

Compound | % iPS Cell Lines with Active Gtl2 Locus: % Locus Unmethylated High (>40%) (Gtl2/Dlk1 (Gtl2 locus); share of lines in class High (>40%)) [%] | % iPS Cell Lines with Active Gtl2 Locus: % Locus Unmethylated Low (1-10%) (Gtl2/Dlk1 (Gtl2 locus); share of lines in class Low (1-10%)) [%] | % iPS Cell Lines with Active Gtl2 Locus: % Locus Unmethylated Medium (10-40%) (Gtl2/Dlk1 (Gtl2 locus); share of lines in class Medium (10-40%)) [%] | % iPS Cell Lines with Active Gtl2 Locus: % Locus Unmethylated Negative (not detectable) (Gtl2/Dlk1 (Gtl2 locus); share of lines in class Negative (not detectable)) [%] | colony emergence in the absence of dox ([1]; iMZ MEFs, VPA alone 1.9 mM, no dox) | post-transduction day on which colonies were observed ([1]; iMZ lines, Pcdh21/Cre-Z/EG MEFs, dox 10 μg/ml, VPA 1.9 mM from day 4) | post-transduction day on which colonies were observed ([1]; iNZ lines, Nex/Cre-Z/EG MEFs) | colonies observed on day 14 ([1]; iNZ lines, Nex/Cre-Z/EG MEFs, post-transduction day 14)
CCCC(CCC)C(=O)O [VPA, valproic acid] | 27 | 40 | 33 | 0 | No colonies emerged |  |  | 
C[C@H]1c2cccc(O)c2C(=O)C2=C(O)[C@]3(O)C(=O)C(C(N)=O)=C(O)[C@@H](N(C)C)[C@@H]3[C@@H](O)[C@@H]21 [dox, doxycycline] |  |  |  |  |  | 11 | 11 | 19
